Data published in US20100069854A1, “Elastomeric Devices Containing Chlorhexidine/Fatty Acid Salts Made From Fatty Acids of 12 to 18 Carbons” (priority 2008, published 2010).
Entries after “also recorded” stand apart in the source; their conditions may differ.

Assays:
[1] = test system: Candida albicans ATCC 10231; test: Zone of inhibition assay with impregnated polyurethane foam discs; type: cell-based; conditions: for Zone of inhibition compared with the other salts (in words): impregnated polyurethane foam, after several daily transfers / over the 9 day assay
Protocol: To evaluate antimicrobial properties of polyurethane foam samples infused with the various chlorhexidine/fatty acid salts, a zone of inhibition assay was performed. In this assay, 1.4% (w/v) of chlorhexidine acetate, chlorhexidine caprate, chlorhexidine laurate, chlorhexidine myristate, chlorhexidine palmitate and chlorhexidine stearate solutions in methanol were prepared. A supply of 8 mm discs were punched out of a sheet of polyurethane foam (Rynel medical grade polyurethane foam) with biopsy punches (Miltex Kai). Several discs were placed in each of six 50 ml centrifuge tubes. Approximately 5 ml of each of the different methanol/chlorhexidine/fatty acid salt solutions was added to each respective tube. The discs were centrifuged for 5 minutes to remove any air bubbles and soaked for 1 hr to infuse the foam discs with the respective chlorhexidine/fatty acid salt. Infused discs were transferred to clean centrifuge tubes and vacuum dried at 25° C. for 24 hrs to remove any residual solvents. Initial concentrations of salts, impregnated into the punches, were determined by dissolving the impregnated foams and by high pressure liquid chromatography (HPLC) analysis using an Agilent Eclipse XDB-CN 3u 4.6×150 mm column with initial mobile phase=65% DI water/0.2% trifluoroacetic acid (TFA): 35% Acetonitrile/0.2% TFA. Chlorhexidine absorbance was read at 253 nm and concentration was calculated via a chlorhexidine calibration curve. […] To perform the zone of inhibition assay on the impregnated polyurethane foam discs, agar plates were prepared by mixing 11 g Mueller-Hinton cation-adjusted broth and 1.5 g agarose in 500 ml DI water. The agar was autoclaved for 15 minutes at 121° C., 15 psi. 10 ml of the still hot, liquid agar was pipetted onto petri dishes. The challenge organism, Candida albicans ATCC 10231, was cultivated in Trypticase soy broth, standard microbiological growth medium (TSB). Sterile cotton swabs were dipped into the undiluted culture and the plated agar was fully inoculated with swabs. The 8 mm polyurethane foam discs were transferred daily to a freshly inoculated agar for 9 days. The zone of inhibition (ZOI) was measured using calipers. Actual ZOI was measured by subtracting the diameter of the foam (when wet) from the zone measured and dividing by 2. The results are presented in Table 6, with a graphical representation of the ZOI in FIG. 2;

[2] = Rate of release of chlorhexidine/fatty acid salts from coated polyurethane tubes into DI water; type: physicochemical; conditions: for Cumulative release of the chlorhexidine/fatty acid salts from the coated polyurethane tubes: 1 cm coated tube in DI water, 37° C.
Protocol: A solution of each respective chlorhexidine/fatty acid salt was prepared and used to infuse a sample of elastomeric material. To perform the test, individual samples, 8 cm pieces of polyurethane tube containing a colorant, were surface dip coated in respective solutions of the chlorhexidine/fatty acid salts. The solutions were prepared as follows: 8.6 g of Tecoflex (Noveon, Cleveland, Ohio) was dissolved in 174 g of Tetrahydrofuran and methanol. 5.88 g of chlorhexidine acetate, chlorhexidine laurate, chlorhexidine myristate, chlorhexidine palmitate and chlorhexidine stearate were individually dissolved into the polymer-solvent mixture. The samples were immersed into the solvent-polymer-salt mixture and then dried at room temperature, evaporating the solvent. A polymeric coating was produced on the surface of the tubes. The amounts of chlorhexidine/fatty acid salt adhered per cm of the tube was measured (Table 2) by exhaustively extracting the salt and measuring UV absorbance at 253 nm relative to controls: For each of the samples, the rate of release of chlorhexidine/fatty acid salts into an aqueous solution was determined. To perform the rate of release test, 1 cm from each of the coated polyurethane tubes, were submerged in DeIonized (DI) water and incubated at 37° C. for a period of 28 days to determine the rate of release of the salts from the respective 1 cm samples of coated polyurethane tubing. The water was collected and replaced with fresh water after approximately 2 hours. The water was again collected and replaced with fresh water after the first day and every seven days thereafter. The amount of chlorhexidine/fatty acid salt in the collected water was measured with an Agilent 8453 UV-Vis Diode Array Detector with a manual setup using a cuvette w/path length of 1 cm. Chlorhexidine absorbance was read at 253 nm and concentration was calculated via a calibration curve developed using standards of 1, 5, 10, 20, 30, 35, and 40 μg/mL chlorhexidine acetate in DI Water. The percentage of chlorhexidine/fatty acid salt released from the sample into an aqueous media (percent release) was calculated according to the following equation: Percent release=(cumulative release at that time period/initial content)*100.

[3] = test system: Pseudomonas aeruginosa ATCC 27853; test: Basic broth adherence assay on coated polyurethane tubes; type: cell-based
Protocol: The antimicrobial effectiveness of the coated samples was subjected to different durations of DI water extraction by basic broth adherence assay. For each chlorhexidine/fatty acid salt tested, 3 samples of coated tubing were prepared and assayed. To prepare the inoculum, a culture of Pseudomonas aeruginosa ATCC 27853 was used to challenge the coated polyurethane tubes and controls. The negative control used was a length of uncoated polyurethane tube. The challenge microorganism suspension was prepared as follows: approximately three colonies were removed from a secondary working culture plated on Trypticase Soy Agar (TSA) (BD-Falcon) with 5% sheep's blood and added to 10 ml of Trypticase Soy Broth (TSB). The vial was vortexed for approximately 30 seconds and incubated for 4 hours at 37° C. at 100 rpm. Following incubation, the vial was removed and vortexed. The optical density of the organism suspension was read. The inoculum was then diluted in TSB to a concentration of 5×10^4 colony forming units per milliliter (CFU/mL). This concentration was confirmed by the Miles and Misra drop count method.
The basic broth adherence assay was performed in a 96 well micro titer plate. To each well of the micro titer plate containing either a test article or a control, 900 μl of TSB was added. To this, 100 μl of the adjusted inoculum was added (Note: Due to the 1/10 dilution per well, the starting inoculum concentration of each organism was […] for Pseudomonas aeruginosa). The micro titer plates were then sealed via parafilm® around the edges and wrapped in foil to avoid evaporation of liquid and light contact with the samples. The plates were then placed inside a shaker incubator set at 37° C. and 100 rpm for 24 hours. Incubation at 37° C. then continued until the elapse of 7 days, 14 days, and 21 days, respectively, for each of the 3 samples prepared for each chlorhexidine/fatty acid salt.
At the completion of the respective incubation periods, the samples were rinsed, sonicated, the sonicate was plated and adherence was evaluated. More particularly, following incubation, all samples and controls were dip-rinsed twice in phosphate buffered saline (PBS) to remove the surrounding media. After rinsing, test articles were sonicated in micro titer plate wells containing 1 mL of Dey-Engley (DE) neutralizing broth (Difco). The sonication liquid was then serially diluted, and plated onto the surface of DE neutralizing agar. Plates were incubated at 37° C. for 24 to 48 hours and colonies were counted. Recovery counts were recorded as CFU/mL.

[4] = Day 1, daily transfer to fresh agar
[5] = Day 2, daily transfer to fresh agar
[6] = Day 3, daily transfer to fresh agar
[7] = Day 4, daily transfer to fresh agar
[8] = Day 7, daily transfer to fresh agar
[9] = Day 8, daily transfer to fresh agar
[10] = Day 9, daily transfer to fresh agar

Structure (SMILES)	ZOI produced by impregnated polyurethane foam punches against Candida albicans [1, 4] [mm]	ZOI produced by impregnated polyurethane foam punches against Candida albicans [1, 5] [mm]	ZOI produced by impregnated polyurethane foam punches against Candida albicans [1, 6] [mm]	ZOI produced by impregnated polyurethane foam punches against Candida albicans [1, 7] [mm]	ZOI produced by impregnated polyurethane foam punches against Candida albicans [1, 8] [mm]	ZOI produced by impregnated polyurethane foam punches against Candida albicans [1, 9] [mm]	ZOI produced by impregnated polyurethane foam punches against Candida albicans [1, 10] [mm]	Zone of inhibition compared with the other salts (in words) [1]	Log10 reduction of adhered Pseudomonas aeruginosa onto the surface of coated polyurethane tubes ([3]; 7 days)	Log10 reduction of adhered Pseudomonas aeruginosa onto the surface of coated polyurethane tubes ([3]; 21 days)	Cumulative release of the chlorhexidine/fatty acid salts from the coated polyurethane tubes ([2]; Day 1) [g]	Cumulative release of the chlorhexidine/fatty acid salts from the coated polyurethane tubes ([2]; Day 7) [g]	Cumulative release of the chlorhexidine/fatty acid salts from the coated polyurethane tubes ([2]; Day 14) [g]	Cumulative release of the chlorhexidine/fatty acid salts from the coated polyurethane tubes ([2]; Day 21) [g]	Cumulative release of the chlorhexidine/fatty acid salts from the coated polyurethane tubes ([2]; Day 28) [g]	also measured
CCCCCCCCCC(=O)O.CCCCCCCCCC(=O)O.N=C(NCCCCCCNC(=N)NC(=N)Nc1ccc(Cl)cc1)NC(=N)Nc1ccc(Cl)cc1 [Chlorhexidine Caprate, chlorhexidine caprate]	14	18	18	10	7	9	7	zones of inhibition that were smaller								Percent release of the initial salt concentration from the coated sample ([2]; after approximately 7 days (FIG. 1)): 70%
CCCCCCCCCCCCCC(=O)O.CCCCCCCCCCCCCC(=O)O.N=C(NCCCCCCNC(=N)NC(=N)Nc1ccc(Cl)cc1)NC(=N)Nc1ccc(Cl)cc1 [Chlorhexidine Myristate, chlorhexidine dimyristate]	27	34	32	18	16	16	18		7	7	40	98	133	147	151	Release from the coated sample over the test (in words) ([2]; FIG. 1, 28 days in DI water): continually released at an appreciable rate throughout the duration of the test; Amount released from the coated sample over the 7 day period ([2]; from 21 to 28 days): 4 µg
CCCCCCCCCCCCCCCCCC(=O)O.CCCCCCCCCCCCCCCCCC(=O)O.N=C(NCCCCCCNC(=N)NC(=N)Nc1ccc(Cl)cc1)NC(=N)Nc1ccc(Cl)cc1 [Chlorhexidine Stearate, chlorhexidine distearate]	11	17	16	13	14	8	8	zones of inhibition that were smaller	0	0	30	76	87	95	99	Log10 reduction of adhered Pseudomonas aeruginosa onto the surface of coated polyurethane tubes ([3]; 14 days): 0; Inhibition of adherence / antimicrobial effect against Pseudomonas aeruginosa (in words) ([3]; coated polyurethane tubes compared to uncoated control): did not provide an antimicrobial effect beyond the first day; also recorded: did not inhibit adherence of the challenge organism; Percent release of the initial salt concentration from the coated sample ([2]; after 28 days (FIG. 1)): approximately 40%
